Laboratory results published in PMC10572563, “Application of Pluronics for Enhancing Aqueous Solubility of Lipophilic Microtubule Destabilizing Compounds on the Sea Urchin Embryo Model” (International Journal of Molecular Sciences, 2023).
“And” between values parts separate entries of the source, which are not always exact repeats. Equal entries are not always repeated. Where two headings read alike, the source gives them in different places. Blank lines part the entries; values can stand above or below the compound they belong to.

Columns and labels:
[1] = Precipitation in 1 mM intermediate solutions (visual and microscopic examination); format: physicochemical; conditions: for Appearance of 1 mM/FSW intermediate solution: 1 mM in FSW; for Appearance of 1 mM solution in 5% F127: 1 mM in 5% F127, room temperature
Experimental: Stock solutions of albendazole 1 and isoxazole 2 were prepared in DMSO and 2-pyrrolidone at 10 mM concentration, and stock solutions of chalcones 3 and 4 were prepared in DMSO at 10 mM concentration. […] The precipitation of compounds was analyzed via both visual and microscopic examination.

[2] = Aqueous solubility of chalcones in PBS or Pluronic solutions (UV absorbance of saturated supernatant); format: physicochemical; conditions: for Increase of solubility: Pluronic P123 concentration up to 10%, 25 °C; for Increase of solubility / solubility: PBS pH 7.4; for Enhancement of solubility in aqueous medium: in the presence of 5% Pluronic 123; for solubility: phosphate-buffered saline (PBS) without Pluronics, aqueous with cosolvent or surfactant or cyclodextrin, kinetic from dmso stock, without Pluronics
Experimental: The absorbance of chalcone solutions in DMSO was measured using an Ultrospec 1100 Pro UV/Vis spectrophotometer. […] To this end, 100 mg/mL solutions of 3 and 4 in DMSO were prepared and diluted 10-fold either with neat PBS or with Pluronic solutions of various concentrations. Dilution with PBS yielded the precipitation of the most part of the solute. The precipitated chalcones were removed via centrifugation at 9000 rpm for 5 min. The supernatant represented a saturated solution of the chalcone in the aqueous medium. Then, the supernatants were 10–1000-fold diluted with DMSO, their absorbance was measured at 367 nm for 3 or 350 nm for 4, and the aqueous solubility of chalcones was calculated using the εDMSO values obtained previously. The solubility values were measured in 2–4 repetitions and presented in the graphs as the mean ± SD for p < 0.05.

sea urchin embryos = test system: sea urchin embryos
Experimental: Toxic effects were assessed by exposing fertilized eggs (5−18 min after fertilization) to 2-fold decreasing concentrations of Pluronics. Embryo development was monitored at room temperature until the beginning of active feeding (four-arm mid-pluteus stage). The effects were detected at the following developmental stages: cleavage (2.5 and 5.5–6 h after fertilization), hatched mid-blastula (8.5–9.5 h), mesenchyme blastula (~11 h), prism (20–21 h), early pluteus (25–27 h), and four-arm pluteus (34–35 h) (Figure S2). The effects were estimated quantitatively as no observed effect concentration (NOEC), minimum effective concentration (MEC), and minimum lethal concentration (MLC).

[3] = pH 7.0; cited from earlier work
[4] = solvents in the in vivo sea urchin embryo assay

Increase of solubility [2]: 13 fold
Enhancement of solubility in aqueous medium [2]: enhanced by an order of magnitude
solubility [2]: 344 µg/mL and 1000 µM
Compound: COc1ccc(/C=C/C(=O)c2cc(OC)c(OC)c(OC)c2)cc1O [compound 3]
Appearance of 1 mM/FSW intermediate solution [1]: clear without any visible signs of precipitation

Compound: CCO [EtOH]
NOEC (sea urchin embryos; in vivo): 0.5 % v/v

Increase of solubility [2]: 19 fold
Enhancement of solubility in aqueous medium [2]: enhanced by an order of magnitude
solubility [2]: 88.7 µg/mL and 270 µM
Compound: COc1ccc(/C=C/C(=O)c2cc(OC)c(OC)c(OC)c2)cc1 [compound 4]
Appearance of 1 mM/FSW intermediate solution [1]: formed a thick suspension of fine crystals

Compound: COc1ccc(-c2cnoc2-c2cc(OC)c(OC)c(OC)c2)cc1 [compound 2]
Appearance of 1 mM solution in 5% F127 [1]: remained clear throughout four days of storage at room temperature
Appearance of 1 mM/FSW intermediate solution [1]: opaque, followed by the precipitation of crystals in the bottom of the vial

MEC relative to CMC (sea urchin embryos; in vivo): ~ 6 times
Reduction of MEC (sea urchin embryos; in vivo): 4 times
Compound: Pluronic P123

Compound: CCCSc1ccc2nc(NC(=O)OC)[nH]c2c1 [compound 1, albendazole]
Appearance of 1 mM solution in 5% F127 [1]: formed opaque 1 mM solution in 5% F127
Appearance of 1 mM/FSW intermediate solution [1]: formed a thick suspension of fine crystals
Aqueous solubility [3]: < 1 µg/mL

Compound: C[S+](C)[O-] [DMSO]
NOEC (sea urchin embryos; [4]): 0.2 % v/v

Compound: O=C1CCCN1 [2-pyrrolidone, 2-Pyrrolidone]
NOEC (sea urchin embryos; [4]): 0.1 % v/v
